Active and inactive are the calls of the source. The calls are words filed in the database; no cut-off is given here.

In data set [1] the target is Proteinase-activated receptor 2 (Homo sapiens) (UniProt P55085). The experiment in a line: Inhibition of PAR2-mediated TNFalpha and SLIGKV-NH2-induced interleukin-8 production in normal human epidermal keratinocytes at 10 uM by ELISA. A general note: In an ELISA, binding on a coated surface is turned into a signal by an enzyme label.
For data set [2] the target is unchanged. Briefly: Inhibition of PAR2-mediated IL1-beta and SLIGKV-NH2-induced interleukin-8 production in normal human epidermal keratinocytes at 10 uM by ELISA.
Data set [3] is described as follows: Cytotoxicity against normal human epidermal keratinocytes at 5 uM after 72 hrs by MTT assay. The class given is cell-based. To be noted: keratinocyte. In general terms: Tetrazolium assays rely on reduction of a dye to a coloured formazan, in cell work by metabolically active cells.
Data set [4] is described as follows: Cytotoxicity against normal human epidermal keratinocytes at 10 uM after 72 hrs by MTT assay. The conditions noted are these: keratinocyte. The class given is cell-based.
For data set [5], the target named is Proteinase-activated receptor 2 (Homo sapiens) (UniProt P55085). Briefly: Inhibition of PAR2 gene expression in normal human epidermal keratinocytes at 10 uM after 48 hrs by quantitative RT-PCR.
The target is the same in data set [6]. Briefly: Inhibition of PAR2-mediated SLIGKV-NH2-induced interleukin-8 production in normal human epidermal keratinocytes at 5 uM after 24 hrs by ELISA.
A short description of data set [7]: Cytotoxicity against normal human epidermal keratinocytes at 100 uM after 72 hrs by MTT assay. The class given is cell-based. To be noted: keratinocyte.
Data set [8] concerns the target Proteinase-activated receptor 2 (Homo sapiens) (UniProt P55085). Briefly: Inhibition of PAR2-mediated SLIGKV-NH2-induced interleukin-8 production in normal human epidermal keratinocytes at 10 uM after 24 hrs by ELISA.

Proteinase-activated receptor 2 (Homo sapiens), sequence (P55085 whole entry): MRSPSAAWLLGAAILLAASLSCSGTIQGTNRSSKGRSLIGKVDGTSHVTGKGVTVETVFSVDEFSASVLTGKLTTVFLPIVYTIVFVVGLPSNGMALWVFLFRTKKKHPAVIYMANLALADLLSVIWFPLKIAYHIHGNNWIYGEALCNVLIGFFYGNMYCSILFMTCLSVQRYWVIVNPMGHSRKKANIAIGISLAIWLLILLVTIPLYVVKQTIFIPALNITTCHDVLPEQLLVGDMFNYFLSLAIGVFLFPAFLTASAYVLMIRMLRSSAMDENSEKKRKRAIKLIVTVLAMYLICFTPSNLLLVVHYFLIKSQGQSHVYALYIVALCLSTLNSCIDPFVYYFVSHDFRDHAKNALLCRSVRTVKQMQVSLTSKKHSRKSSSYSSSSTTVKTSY

With `CC[C@H]1OC(=O)[C@H](C)[C@@H](O[C@H]2C[C@@](C)(OC)[C@@H](O)[C@H](C)O2)[C@H](C)[C@@H](O[C@@H]2O[C@H](C)C[C@H](N(C)C)[C@H]2O)[C@](C)(O)C[C@@H](C)/C(=N\OCOCCOC)[C@H](C)[C@@H](O)[C@]1(C)O`, the result in data set [1] was inactive.

For `CC[C@H]1OC(=O)[C@H](C)[C@@H](O[C@H]2C[C@@](C)(OC)[C@@H](O)[C@H](C)O2)[C@H](C)[C@@H](O[C@@H]2O[C@H](C)C[C@H](N(C)C)[C@H]2O)[C@](C)(OC)C[C@@H](C)C(=O)[C@H](C)[C@@H](O)[C@]1(C)O`, in data set [1], the outcome was inactive.

Turning to `C[C@H]1c2cccc(O)c2C(=O)C2=C(O)[C@]3(O)C(=O)C(C(N)=O)=C(O)[C@@H](N(C)C)[C@@H]3[C@@H](O)[C@@H]21.O` [DOXYCYCLINE], the outcome in data set [2], in data set [1], in data set [6] and in data set [8] was Active. Further, the Activity entry is recorded as “Non-toxic” in data set [3], “Non-toxic” in data set [4] and “Toxic” in data set [7]. In data set [5], the outcome was inactive.

On to `CN(C)c1ccc(O)c2c1C[C@H]1C[C@H]3[C@H](N(C)C)C(O)=C(C(N)=O)C(=O)[C@@]3(O)C(O)=C1C2=O` [MINOCYCLINE], for which the outcome in data set [2], in data set [1], in data set [6] and in data set [8] was Active. For the same compound, the Activity result in data set [3] was “Non-toxic”; in data set [4], “Non-toxic”; in data set [7], “Toxic”. Besides, the result in data set [5] was inactive.

In the case of `CN(C)[C@@H]1C(O)=C(C(N)=O)C(=O)[C@@]2(O)C(O)=C3C(=O)c4c(O)cccc4[C@@](C)(O)[C@H]3C[C@@H]12` [TETRACYCLINE], the result in data set [2] and in data set [5] was inactive. Moreover, the results for the Activity entry in data set [3], in data set [4] and in data set [7] were “Non-toxic”, “Non-toxic” and “Toxic”, respectively. Besides, the result in data set [1], in data set [6] and in data set [8] was Active.

Values taken from ChEMBL document CHEMBL1649195, “Tetracyclines modulate protease-activated receptor 2-mediated proinflammatory reactions in epidermal keratinocytes” (Antimicrob Agents Chemother, 2009).
